Paper PMC6691761, “Potential multifunctional agents with anti-hepatoma and anti-inflammation properties by inhibiting NF-кB activation” (Journal of Enzyme Inhibition and Medicinal Chemistry, 2019)

Key:
[1] = test system: Bcl-2 expression in HepG2 cells; assay: Western blot, Bcl-2 expression in HepG2 cells; type: cell-based, human; conditions: HepG2, 1.0, 2.0, and 4.0 μM
Procedure: (§1) The HepG2 cells were treated with BAP 96 at different concentrations (1.0, 2.0, and 4.0 µM) for 3 h, and washed twice by PBS. The cells were lysed and the extracted proteins of cell lysates were separated by 10% SDS-PAGE gel electrophoresis, then transferred onto polyvinylidene fluorides membranes. The membranes were probed with antibodies and visualized using an enhanced chemiluminescence (ECL) detection kit.

[2] = test system: BAX expression in HepG2 cells; assay: Western blot, BAX expression in HepG2 cells; type: cell-based, human; conditions: HepG2, 1.0, 2.0, and 4.0 μM
Procedure: as §1

[3] = test system: human lung carcinoma cells (A549); assay: Cytotoxicity, MTT assay, A549; type: cell-based; conditions: for IC50: MTT, 24 h
Method in brief: (§2)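 IC50 values derive from loss of viability relative to untreated wells, each concentration tested in triplicate. Drug treatment lasts 24 h over 0.01–50 μg/mL with DMSO held at 0.1% (v/v); MTT reduction is measured at 570 nm.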

[4] = test system: C-caspase-3 expression in HepG2 cells; assay: Western blot, C-caspase-3 expression in HepG2 cells; type: cell-based, human; conditions: HepG2, 1.0, 2.0, and 4.0 μM
Procedure: as §1

[5] = test system: BAX expression in HepG2 xenografts; assay: Western blot, BAX in HepG2 xenografts; type: in vivo, Balb/c nude mice; conditions: 0.2, 1.0 and 5.0 mg/kg
Procedure: (§3) The HepG2 cells xenografts were established using the Balb/c nude mice (female, 7-week-old, 17–19 g, n = 30) (Shanghai Laboratory Animal Center, Shanghai Shi, China) were used to investigate the anti-hepatoma effect of 96. Animal experiments were reviewed and approved by the Binzhou Medical University Experimental Animal Committee. Briefly, HepG2 cells (1 × 10^7/0.2 ml PBS/mouse) were inoculated subcutaneously. Three days after the inoculation, the mice were randomly divided into five groups: the saline treated group (Control), 96 (0.2 mg/kg) group, 96 (1.0 mg/kg) treated group, 96 (5.0 mg/kg) treated group, and DOX (1.0 mg/kg) treated group. 96 were dissolved in saline containing 1% of DMSO and administered intraperitoneally every 2 d for 20 days. DOX was also administered intraperitoneally every 2 d for 20 d. The body weight and HepG2 xenografts volumes were recorded from the day of treatment, and xenografts volumes were calculated using the equation: tumour volume = length×(width)[2]×π/6. At the end of the experiment, mice were sacrificed and the xenografts were obtained for western blotting, HE staining and immunohistochemistry staining.
Western blotting was performed to detect the expression of Bcl-2, Bax and C-caspase-3 in HepG2 xenografts. Fresh HepG2 xenografts tissues were lysed and the obtained proteins were processed as the protein obtained from the HepG2 cells.

[6] = test system: human colon cancer cells (HCT116); assay: Cytotoxicity, MTT assay, HCT116; type: cell-based
Method in brief: as §2

HepG2 xenografts = assay: HE staining of HepG2 xenografts; type: in vivo, Balb/c nude mice
Procedure: as §3
The HepG2 xenografts tissues were embedded using the paraffin, and sectioned for HE staining and immunohistochemistry staining. HE staining was performed routinely. The immunohistochemistry staining carried out as following. Briefly, the processed sections were incubated with the primary antibodies: Bcl-2 and TNF-α (NOVUS BIOLOGICALS) at 4 °C overnight. After washing, the anti-rabbit peroxidase-conjugated secondary antibody (Sigma-Aldrich, St. Louis, MO) was incubated for 1 h at RT. After washing with PBS, the cells were visualized using the 3,3'-diaminobenzidine (DAB) solution under the light microscope. The cell images were taken using a light microscopy (Olympus, Tokyo, Japan).

[7] = test system: NF-κB p65 nuclear translocation in TNF-α-stimulated HepG2 cells; assay: NF-κB p65 nuclear translocation, immunofluorescence, HepG2; type: cell-based, human; conditions: HepG2, TNF-α 10 ng/mL, 4.0 μM
Procedure: RAW264.7 cells were pretreated in 96-well plates with LPS (1 μg/mL) for 15 min and then treated with 96 for 2 h. Similarly, HepG2 cells were pretreated with TNF-α (10 ng/mL) for 15 min and then treated with 96 for 4 h. The cells were fixed with 2% paraformaldehyde for 15 min at 37 °C and permeabilized using 0.1% Triton X-100 for 10 min at RT. After blockage with 3% BSA for 30 min, the cells were incubated with anti-NF-κB p65 antibody (NOVUS BIOLOGICALS, Colorado, USA) at 4 °C overnight. After washing, the anti-mouse Alexa488-conjugated secondary antibody (Jackson Immuno Research, West Grove, PA) was incubated for 30 min at RT. After washed with PBS, the cells were incubated in 4-6-diamidino-2-phenyindole (DAPI; Sigma, St. Louis, MO) for 15 min in the dark at RT. The cell images were simultaneously viewed using a microscopy system in High Throughput Screen (Operetta, PerkinElmer, Waltham, MA).

HepG2 cells = assay: Apoptosis assay, annexin V staining, flow cytometry; type: cell-based, human; conditions: 2.0 μM, 24 h
Procedure: After treated with BAP 96 (1.0, 2.0, and 4.0 μM) and DMSO for 24 h. HepG2 cells were washed and added with 500 μL of Binding Buffer, 5 μL of Annexin V-EGFP and 5 μL of Propidiumlodide and mix (BD Biosciences, San Jose, CA) according to the manufacturer’s instruction. The mixed solution was gently vortexed and incubated in the dark at RT for 15 min. The results were detected by flow cytometry (BD FACS Calibur, San Jose, CA) within 1 h.

[8] = test system: human acute mononuclear granulocyte leukaemia (THP-1); assay: Cytotoxicity, MTT assay, THP-1; type: cell-based; conditions: for IC50: MTT, 24 h
Method in brief: as §2

[9] = quotient of IC50 towards LO2 cells

CN1CC(=Cc2cccc(N=Cc3cc(Br)ccc3O)c2)C(=O)C(=Cc2ccccc2F)C1 [Compound 96] was tested, and the “Expression of anti-apoptotic protein Bcl-2” value [1] was “decreased in a dose-dependent manner”, the “Expression of pro-apoptotic protein BAX” value [2] was “dose-dependently increased” and the IC50 ([3]; Homo sapiens, A549, 24 h) was less than 2000 nM. The IC50 [3] was 1600 ± 400 nM, the “A549 SI (selectivity index)” value [3, 9] was 12.4 and the “Expression of C-caspase-3” value [4] was “dose-dependently increased”. For the same molecule, the “Expression of BAX in HepG2 xenografts” value [5] was “significantly increased in a dose-dependent manner”, the IC50 ([6]; Homo sapiens, HCT-116, MTT, 24 h) was 2500 ± 100 nM and the “HCT116 SI (selectivity index)” value [6, 9] was 8.0. The “Fracted cells, HE staining” value (HepG2 xenografts; 96 5.0 mg/kg, DOX 1.0 mg/kg) was “a plenty of fracted cells”, the “Histopathological change of cell nucleus, HE staining” value (HepG2 xenografts; HepG2 xenografts, versus model group) was “made the HepG2 cell nucleus wrinkled” and the p65 nuclear translocation [7] was “prevented the p65 nuclear translocation”. The “Apoptosis rate of HepG2 cells” value (HepG2 cells) was 24.4%, the IC50 ([8]; Homo sapiens, THP-1, 24 h) was less than 2000 nM and the IC50 [8] was 1100 ± 600 nM. The “THP-1 SI (selectivity index)” value [8, 9] was 18.1.
